# Laboratory results: US20250151724A1, “Liquid Soil Treatments Containing Choline” (Harrell's, LLC, priority 2023, published 2025)
# Where two headings read alike, the source gives them in different places.
# Tested on: 'A4' creeping bentgrass
# Conditions: for Root Diameter / Root Length / Root Surface Area / Root Volume / Root Viability: end of trial; for Root Viability: TTC method
# From the text: Mature ‘A4’ creeping bentgrass plugs (4″ diameter) were harvested from field plots and transplanted into 6-inch pots filled with a USGA (United States Golf Association) specification sand mix (fine sand with 10% calcined clay). The bentgrass was maintained at 15 mm and fertilized at 0.2 lb N/1,000 ft^2 at transplanting and then 0.15 lb N/1,000 ft^2 biweekly thereafter. After about 2 months of non-stressed growth with optimum temperature, water, fertilizer, and light, the pots were placed in a controlled environment growth chamber at 95° F. day (12 h)/77° F. night (12 h), light intensity at 400 μmol m^−2 s^−1, 12 h photoperiod, and 65% RH. Water was replaced 5 times weekly at 55% of measured evapotranspiration (ET). […] Four treatments were tested with 4 replications for each treatment. The choline chloride solution at the […] listed below was applied to the canopy at 2 gallons/1,000 ft^2 and the same amount of water was applied to the control (Treatment #1).
# The treatments were as follows: • 1. Fertilized control (0.15 lb. Nitrogen (N) per 1,000 ft^2 every 14 days from 28-8-18 with UMAXX® fertilizer (Harrell's LLC, Lakeland, Florida) • 2. Choline at 0.125 oz./1,000 ft^2 biweekly+0.15 lb. N/1,000 ft^2 biweekly • 3. Choline at 0.25 oz./1,000 ft^2 biweekly+0.15 lb. N/1,000 ft^2 biweekly • 4. Choline at 0.5 oz./1,000 ft^2 biweekly+0.15 lb. N/1,000 ft^2 biweekly The rate and source of fertilization for treatments #2, 3, and 4 were the same as treatment #1 (fertilized control).
# The stress period of the trial lasted for 8 weeks, and there was a total of 4 treatment applications. The following measurements/data were taken at day 0, 14, 28, 42, and 56: • a. Visual leaf color was rated on a 1-9 scale, with 1 indicating brown color and 9 indicating dark green color. • b. Photochemical efficiency was measured with chlorophyll fluorometer (OS-50II, Opti-Sciences, Inc., Hudson, NH). Three readings were collected from each pot and the average was used for statistical analysis. • c. Leaf chlorophyll content and carotenoids were extracted in acetone and measured with a spectrophotometer after incubation for 72 h. • d. Leaf proline content was determined based on the method of Bates et al. 1973 and as described by Wu et al. 2017. • e. Leaf antioxidant superoxide dismutase (SOD) activity was determined based on the method as described by Zhang et al. 2015. • f. Root viability, root samples were collected at the end of the trial and TTC method was used to measure root viability as described by Zhang et al., 2017. • g. Root growth characteristics (root length, root surface area, root diameter, root length density) were determined using WinRHIZO technology. • h. Root biomass of the whole pot was measured at day 56. For leaf chlorophyll, carotenoids, proline, and superoxide dismutase (SOD) activity, fresh samples were collected every two weeks and frozen with liquid and stored at −80° C. before lab analysis.
# [1] = 0.125 oz/1000 ft^2 biweekly, day 0
# [2] = 0.125 oz/1000 ft^2 biweekly, day 14
# [3] = 0.125 oz/1000 ft^2 biweekly, day 28
# [4] = 0.125 oz/1000 ft^2 biweekly, day 42
# [5] = 0.125 oz/1000 ft^2 biweekly, day 56
# [6] = 0.25 oz/1000 ft^2 biweekly, day 0
# [7] = 0.25 oz/1000 ft^2 biweekly, day 14
# [8] = 0.25 oz/1000 ft^2 biweekly, day 28
# [9] = 0.25 oz/1000 ft^2 biweekly, day 42
# [10] = 0.25 oz/1000 ft^2 biweekly, day 56
# [11] = 0.5 oz/1000 ft^2 biweekly, day 0
# [12] = 0.5 oz/1000 ft^2 biweekly, day 14
# [13] = 0.5 oz/1000 ft^2 biweekly, day 28
# [14] = 0.5 oz/1000 ft^2 biweekly, day 42
# [15] = 0.5 oz/1000 ft^2 biweekly, day 56
structure (smiles),measurement,setting,value
"C[N+](C)(C)CCO.[Cl-] [Choline, choline chloride]",Carotenoids,[1],1.05a mg/g Fresh Weight
same,Chlorophyll,[1],3.04a mg/g Fresh Weight
same,"Leaf color (1-9, 9 = dark green)",[1],8.0a
same,Photochemical Efficiency (Fv/F^m),[1],0.726a
same,Proline content,[1],64.1a μg/g FW
same,SOD activity,[1],909.7a Unit/g FW
same,Carotenoids,[2],0.88b mg/g Fresh Weight
same,Chlorophyll,[2],2.40c mg/g Fresh Weight
same,"Leaf color (1-9, 9 = dark green)",[2],7.1ab
same,Photochemical Efficiency (Fv/F^m),[2],0.659a
same,Proline content,[2],170.7a μg/g FW
same,SOD activity,[2],906.4a Unit/g FW
same,Carotenoids,[3],0.76c mg/g Fresh Weight
same,Chlorophyll,[3],2.16b mg/g Fresh Weight
same,"Leaf color (1-9, 9 = dark green)",[3],6.0b
same,Photochemical Efficiency (Fv/F^m),[3],0.668a
same,Proline content,[3],156.5a μg/g FW
same,SOD activity,[3],865.7ab Unit/g FW
same,Carotenoids,[4],0.69a mg/g Fresh Weight
same,Chlorophyll,[4],1.74ab mg/g Fresh Weight
same,"Leaf color (1-9, 9 = dark green)",[4],6.3b
same,Photochemical Efficiency (Fv/F^m),[4],0.611ab
same,Proline content,[4],156.1ab μg/g FW
same,SOD activity,[4],752.3bc Unit/g FW
same,Carotenoids,[5],0.67b mg/g Fresh Weight
same,Chlorophyll,[5],1.72ab mg/g Fresh Weight
same,"Leaf color (1-9, 9 = dark green)",[5],6.0b
same,Photochemical Efficiency (Fv/F^m),[5],0.596ab
same,Proline content,[5],139.7b μg/g FW
same,Root Biomass,[5],1.269a g/pot
same,SOD activity,[5],721.2bc Unit/g FW
same,Root Diameter,0.125 oz/1000 ft^2 biweekly,0.161b mm
same,Root Length,0.125 oz/1000 ft^2 biweekly,17.7ab cm/cm^3
same,Root Surface Area,0.125 oz/1000 ft^2 biweekly,0.90ab cm^2/cm^3
same,Root Volume,0.125 oz/1000 ft^2 biweekly,3.61ab cm^3/dm^3
same,Root Viability,0.125 oz/1000 ft^2 biweekly,0.78ab A490/g FW
same,Carotenoids,[6],1.03a mg/g Fresh Weight
same,Chlorophyll,[6],2.95a mg/g Fresh Weight
same,"Leaf color (1-9, 9 = dark green)",[6],8.0a
same,Photochemical Efficiency (Fv/F^m),[6],0.726a
same,Proline content,[6],63.1a μg/g FW
same,SOD activity,[6],870.8a Unit/g FW
same,Carotenoids,[7],1.02a mg/g Fresh Weight
same,Chlorophyll,[7],2.76a mg/g Fresh Weight
same,"Leaf color (1-9, 9 = dark green)",[7],7.4a
same,Photochemical Efficiency (Fv/F^m),[7],0.672a
same,Proline content,[7],177.4a μg/g FW
same,SOD activity,[7],930.7a Unit/g FW
same,Carotenoids,[8],0.94a mg/g Fresh Weight
same,Chlorophyll,[8],2.75a mg/g Fresh Weight
same,"Leaf color (1-9, 9 = dark green)",[8],6.6a
same,Photochemical Efficiency (Fv/F^m),[8],0.645a
same,Proline content,[8],162.3a μg/g FW
same,SOD activity,[8],885.1a Unit/g FW
same,Carotenoids,[9],0.84a mg/g Fresh Weight
same,Chlorophyll,[9],2.10ab mg/g Fresh Weight
same,"Leaf color (1-9, 9 = dark green)",[9],6.7a
same,Photochemical Efficiency (Fv/F^m),[9],0.648a
same,Proline content,[9],169.5a μg/g FW
same,SOD activity,[9],872.3a Unit/g FW
same,Carotenoids,[10],0.84a mg/g Fresh Weight
same,Chlorophyll,[10],1.99a mg/g Fresh Weight
same,"Leaf color (1-9, 9 = dark green)",[10],6.6a
same,Photochemical Efficiency (Fv/F^m),[10],0.615a
same,Proline content,[10],267.1a μg/g FW
same,Root Biomass,[10],1.273a g/pot
same,SOD activity,[10],866.5a Unit/g FW
same,Root Diameter,0.25 oz/1000 ft^2 biweekly,0.170ab mm
same,Root Length,0.25 oz/1000 ft^2 biweekly,18.4a cm/cm^3
same,Root Surface Area,0.25 oz/1000 ft^2 biweekly,0.98a cm^2/cm^3
same,Root Volume,0.25 oz/1000 ft^2 biweekly,4.18a cm^3/dm^3
same,Root Viability,0.25 oz/1000 ft^2 biweekly,1.28a A490/g FW
same,Carotenoids,[11],1.07a mg/g Fresh Weight
same,Chlorophyll,[11],3.07a mg/g Fresh Weight
same,"Leaf color (1-9, 9 = dark green)",[11],8.0a
same,Photochemical Efficiency (Fv/F^m),[11],0.718a
same,Proline content,[11],53.5a μg/g FW
same,SOD activity,[11],878.3a Unit/g FW
same,Carotenoids,[12],0.98ab mg/g Fresh Weight
same,Chlorophyll,[12],2.67ab mg/g Fresh Weight
same,"Leaf color (1-9, 9 = dark green)",[12],7.4a
same,Photochemical Efficiency (Fv/F^m),[12],0.690a
same,Proline content,[12],180.0a μg/g FW
same,SOD activity,[12],911.1a Unit/g FW
same,Carotenoids,[13],0.91ab mg/g Fresh Weight
same,Chlorophyll,[13],2.54ab mg/g Fresh Weight
same,"Leaf color (1-9, 9 = dark green)",[13],6.8a
same,Photochemical Efficiency (Fv/F^m),[13],0.661a
same,Proline content,[13],167.1a μg/g FW
same,SOD activity,[13],900.7a Unit/g FW
same,Carotenoids,[14],0.84a mg/g Fresh Weight
same,Chlorophyll,[14],2.18a mg/g Fresh Weight
same,"Leaf color (1-9, 9 = dark green)",[14],6.9a
same,Photochemical Efficiency (Fv/F^m),[14],0.659a
same,Proline content,[14],171.8a μg/g FW
same,SOD activity,[14],836.4ab Unit/g FW
same,Carotenoids,[15],0.83a mg/g Fresh Weight
same,Chlorophyll,[15],2.01a mg/g Fresh Weight
same,"Leaf color (1-9, 9 = dark green)",[15],6.9a
same,Photochemical Efficiency (Fv/F^m),[15],0.610a
same,Proline content,[15],278.0a μg/g FW
same,Root Biomass,[15],1.270a g/pot
same,SOD activity,[15],815.7ab Unit/g FW
same,Root Diameter,0.5 oz/1000 ft^2 biweekly,0.176a mm
same,Root Length,0.5 oz/1000 ft^2 biweekly,18.8a cm/cm^3
same,Root Surface Area,0.5 oz/1000 ft^2 biweekly,0.99a cm^2/cm^3
same,Root Volume,0.5 oz/1000 ft^2 biweekly,4.15a cm^3/dm^3
same,Root Viability,0.5 oz/1000 ft^2 biweekly,1.10a A490/g FW
